Assay results as given in patent US10112929B2, “Lactams as inhibitors of rock” (BRISTOL-MYERS SQUIBB COMPANY, priority 2015, dated 2018).
Structures can show the parent of a compound that is named as a salt.

Each compound was assayed against ROCK2 (Homo sapiens (Human), UniProt O75116) (assay: biochemical).
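Further: rho kinase enzyme reaction halted with EDTA, phospho- and non-phospho peptide separated for read-out, kinase activity inhibition derived across a dose-response series, DMSO under 2%.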

Sequence of ROCK2 (O75116 whole entry, species assumed): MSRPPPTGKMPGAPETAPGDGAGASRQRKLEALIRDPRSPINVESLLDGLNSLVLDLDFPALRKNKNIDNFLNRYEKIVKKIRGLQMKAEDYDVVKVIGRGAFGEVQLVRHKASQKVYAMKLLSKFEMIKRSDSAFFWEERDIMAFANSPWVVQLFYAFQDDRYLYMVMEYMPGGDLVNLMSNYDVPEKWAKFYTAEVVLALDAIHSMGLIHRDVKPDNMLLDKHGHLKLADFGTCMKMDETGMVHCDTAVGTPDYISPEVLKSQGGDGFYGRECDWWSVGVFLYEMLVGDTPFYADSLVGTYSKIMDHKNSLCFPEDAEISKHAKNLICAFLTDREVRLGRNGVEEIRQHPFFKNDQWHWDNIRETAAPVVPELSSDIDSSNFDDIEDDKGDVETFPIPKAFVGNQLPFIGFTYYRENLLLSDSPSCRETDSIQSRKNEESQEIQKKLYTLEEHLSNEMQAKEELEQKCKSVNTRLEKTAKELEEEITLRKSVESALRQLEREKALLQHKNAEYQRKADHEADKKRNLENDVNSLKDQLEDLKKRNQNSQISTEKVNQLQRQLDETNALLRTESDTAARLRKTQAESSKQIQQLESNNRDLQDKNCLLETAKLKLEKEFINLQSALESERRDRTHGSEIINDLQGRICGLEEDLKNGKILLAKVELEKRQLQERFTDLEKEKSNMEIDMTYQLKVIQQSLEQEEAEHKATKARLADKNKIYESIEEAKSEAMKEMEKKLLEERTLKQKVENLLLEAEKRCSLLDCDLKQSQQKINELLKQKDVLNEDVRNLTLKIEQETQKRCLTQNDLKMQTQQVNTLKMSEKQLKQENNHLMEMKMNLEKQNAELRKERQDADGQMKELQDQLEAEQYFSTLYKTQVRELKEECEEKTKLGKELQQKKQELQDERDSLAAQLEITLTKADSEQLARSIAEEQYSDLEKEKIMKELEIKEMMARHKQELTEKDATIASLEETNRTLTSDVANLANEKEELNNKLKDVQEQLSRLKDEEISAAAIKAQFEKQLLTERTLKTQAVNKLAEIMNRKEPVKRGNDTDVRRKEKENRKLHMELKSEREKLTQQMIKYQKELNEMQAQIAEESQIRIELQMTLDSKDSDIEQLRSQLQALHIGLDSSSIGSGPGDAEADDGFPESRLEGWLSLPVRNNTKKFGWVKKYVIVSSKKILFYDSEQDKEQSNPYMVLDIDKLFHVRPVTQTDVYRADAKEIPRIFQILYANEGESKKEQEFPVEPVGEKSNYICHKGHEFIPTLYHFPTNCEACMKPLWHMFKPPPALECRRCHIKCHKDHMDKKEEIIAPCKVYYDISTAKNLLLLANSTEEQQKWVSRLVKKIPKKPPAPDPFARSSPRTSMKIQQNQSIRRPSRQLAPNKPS

SMILES | IC50 [µM]
COc1ccc(NC2CCN(c3ccc(-c4cn[nH]c4)cc3)C2=O)c(F)c1 (single isomer, unassigned) [Example 19, 1-(4-(1H-pyrazol-4-yl)phenyl)-3-((2-fluoro-4-methoxyphenyl)amino)pyrrolidin-2-one] | 0.1 to 2.2
COc1nc(N2CCC(Nc3ccc4c(c3)OCCO4)C2=O)ccc1-c1cn[nH]c1 (racemic) [Example 256, 3-((2,3-dihydrobenzo[b][l,4]dioxin-6-yl)amino)-1-(6-methoxy-5-(1H-pyrazol-4-yl)pyridin-2-yl)pyrrolidin-2-one] | 0.01 to 0.1
Cc1nc(N2CCC(Nc3cccc(OC(F)F)c3)C2=O)ccc1-c1cn[nH]c1 (single isomer, unassigned) [Example 201, 3-((3-(difluoromethoxy)phenyl)amino)-1-(6-methyl-5-(1H-pyrazol-4-yl)pyridin-2-yl)pyrrolidin-2-one] | 0.01 to 0.1
COc1cc(NC2CCN(c3ccc(-c4cn[nH]c4)c(C)c3)C2=O)cc(OC)c1 (single isomer, unassigned) [Example 366, 3-((3,5-dimethoxyphenyl)amino)-1-(3-methyl-4-(1H-pyrazol-4-yl)phenyl) pyrrolidin-2-one] | 0.1 to 2.2
COc1cccc(OC2CCN(c3ccc(-c4cn[nH]c4)cc3)C2=O)c1 (stereo not drawn) [Example 108, 1-(4-(1H-Pyrazol-4-yl)phenyl)-3-(3-methoxyphenoxy)pyrrolidin-2-one, TFA] | 0.01 to 0.1
COc1c(F)cccc1NC1CCN(c2ccc(-c3cn[nH]c3)cn2)C1=O (single isomer, unassigned) [Example 90, 1-(5-(1H-pyrazol-4-yl)pyridin-2-yl)-3-((3-fluoro-2-methoxyphenyl)amino)pyrrolidin-2-one] | 0.1 to 2.2
COc1cccc(OC2CCN(c3ccc(-c4ccc5cn[nH]c5c4)c(OC)n3)C2=O)c1 (single isomer, unassigned) [Example 124, 1-(5-(1H-indazol-6-yl)-6-methoxypyridin-2-yl)-3-(3-methoxyphenoxy)pyrrolidin-2-one] | 0.1 to 2.2
COc1cccc(NC2CCN(c3ccc(-c4ccncc4F)c(C)n3)C2=O)c1 (single isomer, unassigned) [Example 121, 1-(3′-fluoro-2-methyl-[3,4′-bipyridin]-6-yl)-3-((3-methoxyphenyl)amino)pyrrolidin-2-one] | 0.1 to 2.2
COc1cccc(NC2CCN(c3cc(F)c(-c4cn[nH]c4)cc3F)C2=O)c1 (single isomer, unassigned) [Example 353, 1-(2,5-difluoro-4-(1H-pyrazol-4-yl)phenyl)-3-((3-methoxyphenyl)amino)pyrrolidin-2-one] | 0.01 to 0.1
COc1cc(F)cc(NC2CCN(c3ccc(-c4cn[nH]c4)nc3)C2=O)c1 (single isomer, unassigned) [Example 301, 1-(6-(1H-pyrazol-4-yl)pyridin-3-yl)-3-((3-fluoro-5-methoxyphenyl)amino)pyrrolidin-2-one] | 0.01 to 0.1
COc1cc(F)cc(NC2CCN(c3ccc(-c4cn[nH]c4)c(C)n3)C2=O)c1 (single isomer, unassigned) [Example 192, 3-((3-fluoro-5-methoxyphenyl)amino)-1-(6-methyl-5-(1H-pyrazol-4-yl)pyridin-2-yl)pyrrolidin-2-one] | 0.01 to 0.1
O=C1C(Nc2cnccn2)CCN1c1ccc(-c2cn[nH]c2)cc1 (racemic) [Example 226, 1-(4-(1H-pyrazol-4-yl)phenyl)-3-(pyrazin-2-ylamino)pyrrolidin-2-one] | 0.01 to 0.1
COc1nc(N2CCC(N3CCC(=O)CC3)C2=O)ccc1-c1cn[nH]c1 (racemic) [Example 292, 1-(1-(6-methoxy-5-(1H-pyrazol-4-yl)pyridin-2-yl)-2-oxopyrrolidin-3-yl)piperidin-4-one hydrochloridehydrate] | 0.01 to 0.1
COc1nc(N2CCC(N3CCCC(C)(C)C3)C2=O)ccc1-c1cn[nH]c1 (racemic) [Example 278, 3-(3,3-dimethylpiperidin-1-yl)-1-(6-methoxy-5-(1H-pyrazol-4-yl)pyridin-2-yl)pyrrolidin-2-one] | 0.1 to 2.2
COc1nc(N2CCC(N3CCC(F)CC3)C2=O)ccc1-c1cn[nH]c1 (racemic) [Example 296, 3-(4-fluoropiperidin-1-yl)-1-(6-methoxy-5-(1H-pyrazol-4-yl)pyridin-2-yl)pyrrolidin-2-one hydrochloride] | 0.01 to 0.1
COc1cccc(NC2CCN(c3ccc(-c4cn[nH]c4)c(C(F)(F)F)c3)C2=O)c1 (single isomer, unassigned) [Example 367, 1-(4-(1H-pyrazol-4-yl)-3-(trifluoromethyl)phenyl)-3-((3-methoxyphenyl)amino) pyrrolidin-2-one] | 0.1 to 2.2
COc1cc(F)cc(OC2CCN(c3ccc(-c4cn[nH]c4)cc3)C2=O)c1 (stereo not drawn) [Example 112, 1-(4-(1H-pyrazol-4-yl)phenyl)-3-(3-fluoro-5-methoxyphenoxy)pyrrolidin-2-one] | 0.1 to 2.2
COc1ccc(C(=O)OC2CCN(c3ccc(-c4cn[nH]c4)cc3)C2=O)c(N)c1 (racemic) [Example 327, 1-(4-(1H-pyrazol-4-yl)phenyl)-2-oxopyrrolidin-3-yl2-amino-4-methoxybenzoate] | 0.1 to 2.2
CCc1cc(N2CCC(Nc3ccc(F)c(OC)c3)C2=O)ncc1-c1cn[nH]c1 (single isomer, unassigned) [Example 210, 1-(4-ethyl-5-(1H-pyrazol-4-yl)pyridin-2-yl)-3-((4-fluoro-3-methoxyphenyl)amino) pyrrolidin-2-one] | 0.1 to 2.2
COc1ccc(N2CCN(C3CCN(c4ccc(-c5cn[nH]c5)c(OC)n4)C3=O)CC2)cc1 (racemic) [Example 287, 1-(6-methoxy-5-(1H-pyrazol-4-yl)pyridin-2-yl)-3-(4-(4-methoxyphenyl)piperazin-1-yl)pyrrolidin-2-one dihydrochloride] | 0.1 to 2.2
COc1cccc(N(CCO)C2CCN(c3ccc(-c4cn[nH]c4)cc3)C2=O)c1 (stereo not drawn) [Example 12, 1-(4-(1H-pyrazol-4-yl)phenyl)-3-((2-hydroxyethyl)(3-methoxyphenyl)amino)pyrrolidin-2-one] | 0.01 to 0.1
COc1ccc(F)c(NC2CCN(c3ccc(-c4cn[nH]c4)cc3)C2=O)c1 (single isomer, unassigned) [Example 239, 1-(4-(1H-pyrazol-4-yl)phenyl)-3-((2-fluoro-5-methoxyphenyl)amino)pyrrolidin-2-one] | 0.01 to 0.1
COc1ccc(N[C@@H]2CCN(c3ccc(-c4cn[nH]c4)cc3)C2=O)c(OC)c1 [Example 384, (R)-1-(4-(1H-pyrazol-4-yl)phenyl)-3-((2,4-dimethoxyphenyl)amino)pyrrolidin-2-one] | 0.1 to 2.2
O=C1C(Cc2ccc(F)cc2)CCN1c1ccc(-c2cn[nH]c2)cc1 (stereo not drawn) [Example 98, 1-(4-(1H-pyrazol-4-yl)phenyl)-3-(4-fluorobenzyl)pyrrolidin-2-one] | 0.1 to 2.2

Further lines, results first:

IC50 [µM] | SMILES
< 0.01 | COc1cccc(NC2CCN(c3ccc(-c4cn[nH]c4)c(OC)n3)C2=O)c1 (single isomer, unassigned) [Example 196, 1-(6-methoxy-5-(1H-pyrazol-4-yl)pyridin-2-yl)-3-((3-methoxyphenyl)amino) pyrrolidin-2-one]
0.01 to 0.1 | COc1ccc(F)c(NC2CCN(c3ccc(-c4cn[nH]c4)c(OC)c3)C2=O)c1 (single isomer, unassigned) [Example 147, 3-((2-fluoro-5-methoxyphenyl)amino)-1-(3-methoxy-4-(1H-pyrazol-4-yl)phenyl) pyrrolidin-2-one]
0.01 to 0.1 | COc1cccc(CCC2CCN(c3ccc(-c4cn[nH]c4)cc3)C2=O)c1 (stereo not drawn) [Example 99, 1-(4-(1H-pyrazol-4-yl)phenyl)-3-(3-methoxyphenethyl)pyrrolidin-2-one]
0.01 to 0.1 | COc1c(F)cccc1NC1CCN(c2ccc(-c3cn[nH]c3)c(OC(F)F)c2)C1=O (single isomer, unassigned) [Example 33, 1-(3-(difluoromethoxy)-4-(1H-pyrazol-4-yl)phenyl)-3-((3-fluoro-2-methoxyphenl)amino)pyrrolidin-2-one]
< 0.01 | O=C1C(Nc2cccc(OCC(F)F)c2)CCN1c1ccc(-c2cn[nH]c2)cc1 (single isomer, unassigned) [Example 237, 1-(4-(1H-pyrazol-4-yl)phenyl)-3-((3-(2,2-difluoroethoxy)phenyl)amino)pyrrolidin-2-one]
< 0.01 | COc1cc(F)cc(NC2CCN(c3ccc(-c4cn[nH]c4)cn3)C2=O)c1 (stereo not drawn) [Example 82, 1-(5-(1H-pyrazol-4-yl)pyridin-2-yl)-3-((3-fluoro-5-methoxyphenyl)amino)pyrrolidin-2-one]
< 0.01 | COc1cc(F)cc(NC2CCN(c3ccc(-c4cn[nH]c4)c(F)c3)C2=O)c1 (single isomer, unassigned) [Example 49, 1-(3-fluoro-4-(1H-pyrazol-4-yl)phenyl)-3-((3-fluoro-5-methoxyphenyl)amino)pyrrolidin-2-one]
< 0.01 | CCOc1cccc(NC2CCN(c3ccc(-c4cn[nH]c4)c(OC)c3)C2=O)c1 (single isomer, unassigned) [Example 250, 3-((3-ethoxyphenyl)amino)-1-(3-methoxy-4-(1H-pyrazol-4-yl)phenyl)pyrrolidin-2-one]
< 0.01 | NC(=O)c1cccc(NC2CCN(c3ccc(-c4cn[nH]c4)cc3)C2=O)c1 (stereo not drawn) [Example 388, 3-((1-(4-(1H-pyrazol-4-yl)phenyl)-2-oxopyrrolidin-3-yl)amino)benzamide]
< 0.01 | O=C1C(Nc2cccc(F)c2)CCN1c1ccc(-c2cn[nH]c2)c(F)c1 (single isomer, unassigned) [Example 47, 1-(3-fluoro-4-(1H-pyrazol-4-yl)phenyl)-3-((3-fluorophenyl)amino)pyrrolidin-2-one]
< 0.01 | COc1nc(N2CCC(N3CCNc4ccccc43)C2=O)ccc1-c1cn[nH]c1 (racemic) [Example 228, 3-(3,4-dihydroquinoxalin-1(2H)-yl)-1-(6-methoxy-5-(1H-pyrazol-4-yl)pyridin-2-yl)pyrrolidin-2-one]
< 0.01 | COc1nc(N2CCC(Nc3cccc(OCC4CC4)c3)C2=O)ccc1-c1cn[nH]c1 (racemic) [Example 205, 3-((3-(cyclopropylmethoxy)phenyl)amino)-1-(6-methoxy-5-(1H-pyrazol-4-yl)pyridin-2-yl)pyrrolidin-2-one]
